The source of these data is ChEMBL document CHEMBL4477252, “Optimization of microtubule affinity regulating kinase (MARK) inhibitors with improved physical properties” (Bioorg Med Chem Lett, 2016).

Chain of Mitogen-activated protein kinase 9 (P45984 whole entry): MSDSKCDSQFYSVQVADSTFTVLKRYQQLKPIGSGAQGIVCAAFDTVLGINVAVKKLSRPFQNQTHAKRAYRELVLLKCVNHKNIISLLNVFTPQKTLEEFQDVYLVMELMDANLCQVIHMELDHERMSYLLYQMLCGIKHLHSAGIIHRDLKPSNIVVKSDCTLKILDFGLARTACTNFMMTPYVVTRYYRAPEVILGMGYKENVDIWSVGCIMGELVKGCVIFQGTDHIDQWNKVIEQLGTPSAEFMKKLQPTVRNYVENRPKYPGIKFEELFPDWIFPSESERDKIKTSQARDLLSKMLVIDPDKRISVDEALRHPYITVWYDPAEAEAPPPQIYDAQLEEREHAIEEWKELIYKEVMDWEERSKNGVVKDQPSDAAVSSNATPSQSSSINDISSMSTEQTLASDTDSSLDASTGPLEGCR

The first data set concerns the target Mitogen-activated protein kinase 9 (Homo sapiens, UniProt P45984). In words: Inhibition of full-length recombinant human His-tagged MAPK9 expressed in baculovirus expression system by Z'-LYTE assay.
Conditions: not given
Usually IC50 stands for the concentration that gives 50% inhibition. As to `O=C(NCC(F)(F)F)c1cc(-c2cnn3cc(-c4ccc(OCCN5CCCCC5)cc4)cnc23)cs1`, the half-maximal inhibitory concentration (IC50) came out at 0.85 µM.

Regarding `Cn1cc(-c2cnc3c(-c4csc(C(=O)NCC(F)(F)F)c4)cnn3c2)cn1`, the IC50 is 1.7 µM.

For `Cc1sc(C(=O)N[C@@H]2[C@H](N)CCCC2(F)F)cc1-c1cnn2cc(Cl)cnc12`, the half-maximal inhibitory concentration (IC50) was found to be 4.4 µM.

On to `Cn1cc(-c2cnc3c(-c4csc(C(=O)N[C@@H]5CCCC[C@@H]5N)c4)cnn3c2)cn1` (racemic), for which the half-inhibitory concentration (IC50) worked out at 0.64 µM.

The target of another data set is T1, Ephrin type-A receptor 3 (Homo sapiens, UniProt P29320).
T1 sequence (P29320 whole entry): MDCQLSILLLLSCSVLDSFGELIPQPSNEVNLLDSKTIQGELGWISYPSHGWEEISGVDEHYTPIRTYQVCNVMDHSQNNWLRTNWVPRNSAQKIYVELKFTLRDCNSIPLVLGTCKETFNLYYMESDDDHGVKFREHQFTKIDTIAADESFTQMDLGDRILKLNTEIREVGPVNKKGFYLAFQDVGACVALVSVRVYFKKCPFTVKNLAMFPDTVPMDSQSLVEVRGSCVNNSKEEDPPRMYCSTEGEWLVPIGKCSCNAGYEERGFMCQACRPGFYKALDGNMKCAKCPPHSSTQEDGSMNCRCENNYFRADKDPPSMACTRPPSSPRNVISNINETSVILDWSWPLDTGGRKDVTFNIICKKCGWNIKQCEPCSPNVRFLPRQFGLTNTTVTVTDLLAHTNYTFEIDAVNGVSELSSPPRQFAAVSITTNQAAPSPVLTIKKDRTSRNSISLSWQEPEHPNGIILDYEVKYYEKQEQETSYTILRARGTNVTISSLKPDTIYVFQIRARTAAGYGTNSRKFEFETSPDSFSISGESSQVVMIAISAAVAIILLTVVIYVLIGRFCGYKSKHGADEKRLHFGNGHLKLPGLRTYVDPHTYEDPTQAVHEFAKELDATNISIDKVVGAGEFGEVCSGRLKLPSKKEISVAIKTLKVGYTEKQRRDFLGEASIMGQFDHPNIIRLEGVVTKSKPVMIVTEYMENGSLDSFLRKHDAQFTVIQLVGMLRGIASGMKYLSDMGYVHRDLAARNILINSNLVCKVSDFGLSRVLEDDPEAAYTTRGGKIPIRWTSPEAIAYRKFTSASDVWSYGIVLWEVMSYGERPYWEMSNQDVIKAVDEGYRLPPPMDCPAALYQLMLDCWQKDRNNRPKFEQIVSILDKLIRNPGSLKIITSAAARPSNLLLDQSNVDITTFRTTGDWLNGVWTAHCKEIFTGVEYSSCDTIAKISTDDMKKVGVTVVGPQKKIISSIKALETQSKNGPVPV
Nature of the data set: Inhibition of recombinant human His-tagged cytoplasmic EPHA3 expressed in baculovirus expression system by LanthaScreen assay.
Conditions: not given
With `O=C(NCC(F)(F)F)c1cc(-c2cnn3cc(-c4ccc(OCCN5CCCCC5)cc4)cnc23)cs1`, the 50% inhibitory concentration (IC50) worked out at 0.18 µM.

Consider `Cn1cc(-c2cnc3c(-c4csc(C(=O)NCC(F)(F)F)c4)cnn3c2)cn1`, for which the IC50 worked out at 0.052 µM.

`Cc1sc(C(=O)N[C@@H]2[C@H](N)CCCC2(F)F)cc1-c1cnn2cc(Cl)cnc12`: the concentration for half-maximal inhibition (IC50) is above 100 µM.

As for `Cn1cc(-c2cnc3c(-c4csc(C(=O)N[C@@H]5CCCC[C@@H]5N)c4)cnn3c2)cn1` (racemic), the IC50 is 0.022 µM.

The target in another data set is PAS domain-containing serine/threonine-protein kinase (Homo sapiens, UniProt Q96RG2). Nature of the data set: Inhibition of recombinant human GST-tagged PASK catalytic domain expressed in baculovirus expression system by Z'-LYTE assay.
Chain of PAS domain-containing serine/threonine-protein kinase (Q96RG2 whole entry, the tested form may be a part): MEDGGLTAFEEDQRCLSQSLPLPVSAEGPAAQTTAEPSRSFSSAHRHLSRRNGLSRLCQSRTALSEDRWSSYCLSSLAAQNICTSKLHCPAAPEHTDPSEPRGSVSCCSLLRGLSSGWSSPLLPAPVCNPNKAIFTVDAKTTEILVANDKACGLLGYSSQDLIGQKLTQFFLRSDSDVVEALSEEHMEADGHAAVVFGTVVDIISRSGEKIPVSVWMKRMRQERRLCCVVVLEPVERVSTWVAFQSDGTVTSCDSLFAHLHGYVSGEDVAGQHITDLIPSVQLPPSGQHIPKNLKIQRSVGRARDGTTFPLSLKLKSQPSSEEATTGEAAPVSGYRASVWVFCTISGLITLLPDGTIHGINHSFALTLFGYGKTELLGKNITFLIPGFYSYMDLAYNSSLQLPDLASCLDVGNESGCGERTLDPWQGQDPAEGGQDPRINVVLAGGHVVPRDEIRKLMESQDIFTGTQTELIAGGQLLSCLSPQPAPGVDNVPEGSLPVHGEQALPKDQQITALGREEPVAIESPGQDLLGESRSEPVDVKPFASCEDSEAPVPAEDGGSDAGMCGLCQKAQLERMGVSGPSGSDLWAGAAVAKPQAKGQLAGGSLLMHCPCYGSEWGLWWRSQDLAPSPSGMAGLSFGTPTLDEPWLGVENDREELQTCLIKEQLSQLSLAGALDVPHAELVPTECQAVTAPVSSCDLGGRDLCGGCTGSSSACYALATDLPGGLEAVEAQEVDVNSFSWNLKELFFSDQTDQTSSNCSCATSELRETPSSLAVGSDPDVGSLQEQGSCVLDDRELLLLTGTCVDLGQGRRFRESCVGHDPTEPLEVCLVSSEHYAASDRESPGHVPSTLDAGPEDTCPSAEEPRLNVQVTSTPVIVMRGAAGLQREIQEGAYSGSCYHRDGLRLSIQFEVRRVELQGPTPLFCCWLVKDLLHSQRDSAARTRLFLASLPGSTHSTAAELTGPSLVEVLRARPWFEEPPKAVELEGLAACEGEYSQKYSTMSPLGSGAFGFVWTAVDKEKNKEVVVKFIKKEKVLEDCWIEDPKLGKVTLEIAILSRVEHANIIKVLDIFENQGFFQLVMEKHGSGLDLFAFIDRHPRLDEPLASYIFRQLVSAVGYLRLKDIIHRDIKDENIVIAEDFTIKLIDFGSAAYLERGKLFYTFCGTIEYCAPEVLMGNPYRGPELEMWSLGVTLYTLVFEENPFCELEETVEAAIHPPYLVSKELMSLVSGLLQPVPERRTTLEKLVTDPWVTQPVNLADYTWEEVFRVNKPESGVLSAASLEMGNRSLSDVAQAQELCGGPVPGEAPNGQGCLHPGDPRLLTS
Conditions: not given
Take `O=C(NCC(F)(F)F)c1cc(-c2cnn3cc(-c4ccc(OCCN5CCCCC5)cc4)cnc23)cs1`: the IC50 turned out to be 37 µM.

Consider `Cn1cc(-c2cnc3c(-c4csc(C(=O)NCC(F)(F)F)c4)cnn3c2)cn1`, for which the IC50 was above 100 µM.

Turning to `Cc1sc(C(=O)N[C@@H]2[C@H](N)CCCC2(F)F)cc1-c1cnn2cc(Cl)cnc12`, the IC50 is 1.4 µM.

For the molecule `Cn1cc(-c2cnc3c(-c4csc(C(=O)N[C@@H]5CCCC[C@@H]5N)c4)cnn3c2)cn1` (racemic), the concentration for half-maximal inhibition (IC50) was determined as 1.5 µM.

Another data set deals with Serine/threonine-protein kinase N1 (Homo sapiens, UniProt Q16512). In words: Inhibition of full-length recombinant human GST-tagged PKN1 expressed in baculovirus expression system by Z'-LYTE assay.
Chain of Serine/threonine-protein kinase N1 (Q16512 whole entry): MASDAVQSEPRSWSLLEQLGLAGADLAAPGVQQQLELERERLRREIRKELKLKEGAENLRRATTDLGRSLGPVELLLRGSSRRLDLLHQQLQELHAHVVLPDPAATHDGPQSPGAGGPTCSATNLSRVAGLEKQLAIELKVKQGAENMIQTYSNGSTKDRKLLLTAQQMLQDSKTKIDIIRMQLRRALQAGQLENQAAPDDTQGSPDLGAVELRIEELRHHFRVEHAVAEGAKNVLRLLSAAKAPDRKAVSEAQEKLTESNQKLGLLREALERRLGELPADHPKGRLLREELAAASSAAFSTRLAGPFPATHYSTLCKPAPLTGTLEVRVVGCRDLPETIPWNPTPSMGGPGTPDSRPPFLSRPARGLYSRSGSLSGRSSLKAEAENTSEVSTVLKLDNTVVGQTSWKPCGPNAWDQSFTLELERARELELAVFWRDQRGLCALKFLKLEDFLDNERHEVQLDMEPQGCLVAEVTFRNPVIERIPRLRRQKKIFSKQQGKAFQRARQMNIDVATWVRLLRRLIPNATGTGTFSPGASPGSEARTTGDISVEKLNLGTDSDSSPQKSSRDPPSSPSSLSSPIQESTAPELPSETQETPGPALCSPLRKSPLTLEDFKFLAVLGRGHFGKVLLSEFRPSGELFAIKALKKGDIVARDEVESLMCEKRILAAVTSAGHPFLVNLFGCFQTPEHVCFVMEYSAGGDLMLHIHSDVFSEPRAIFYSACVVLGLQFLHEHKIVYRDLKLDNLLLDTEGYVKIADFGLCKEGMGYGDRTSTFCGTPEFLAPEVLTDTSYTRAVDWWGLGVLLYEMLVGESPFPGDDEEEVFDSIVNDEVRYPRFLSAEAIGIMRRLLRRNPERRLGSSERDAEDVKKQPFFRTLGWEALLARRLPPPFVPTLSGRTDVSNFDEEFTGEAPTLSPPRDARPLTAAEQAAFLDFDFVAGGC
Conditions: not given
Take `O=C(NCC(F)(F)F)c1cc(-c2cnn3cc(-c4ccc(OCCN5CCCCC5)cc4)cnc23)cs1`: the half-inhibitory concentration (IC50) came to 3.9 µM.

`Cn1cc(-c2cnc3c(-c4csc(C(=O)NCC(F)(F)F)c4)cnn3c2)cn1`: the IC50 amounted to 18 µM.

For the molecule `Cc1sc(C(=O)N[C@@H]2[C@H](N)CCCC2(F)F)cc1-c1cnn2cc(Cl)cnc12`, the IC50 came to 17 µM.

Turning to `Cn1cc(-c2cnc3c(-c4csc(C(=O)N[C@@H]5CCCC[C@@H]5N)c4)cnn3c2)cn1` (racemic), the 50% inhibitory concentration (IC50) turned out to be 0.25 µM.

The target of the next data set is T2, Ephrin type-A receptor 8 (Homo sapiens, UniProt P29322).
T2 sequence (P29322 whole entry): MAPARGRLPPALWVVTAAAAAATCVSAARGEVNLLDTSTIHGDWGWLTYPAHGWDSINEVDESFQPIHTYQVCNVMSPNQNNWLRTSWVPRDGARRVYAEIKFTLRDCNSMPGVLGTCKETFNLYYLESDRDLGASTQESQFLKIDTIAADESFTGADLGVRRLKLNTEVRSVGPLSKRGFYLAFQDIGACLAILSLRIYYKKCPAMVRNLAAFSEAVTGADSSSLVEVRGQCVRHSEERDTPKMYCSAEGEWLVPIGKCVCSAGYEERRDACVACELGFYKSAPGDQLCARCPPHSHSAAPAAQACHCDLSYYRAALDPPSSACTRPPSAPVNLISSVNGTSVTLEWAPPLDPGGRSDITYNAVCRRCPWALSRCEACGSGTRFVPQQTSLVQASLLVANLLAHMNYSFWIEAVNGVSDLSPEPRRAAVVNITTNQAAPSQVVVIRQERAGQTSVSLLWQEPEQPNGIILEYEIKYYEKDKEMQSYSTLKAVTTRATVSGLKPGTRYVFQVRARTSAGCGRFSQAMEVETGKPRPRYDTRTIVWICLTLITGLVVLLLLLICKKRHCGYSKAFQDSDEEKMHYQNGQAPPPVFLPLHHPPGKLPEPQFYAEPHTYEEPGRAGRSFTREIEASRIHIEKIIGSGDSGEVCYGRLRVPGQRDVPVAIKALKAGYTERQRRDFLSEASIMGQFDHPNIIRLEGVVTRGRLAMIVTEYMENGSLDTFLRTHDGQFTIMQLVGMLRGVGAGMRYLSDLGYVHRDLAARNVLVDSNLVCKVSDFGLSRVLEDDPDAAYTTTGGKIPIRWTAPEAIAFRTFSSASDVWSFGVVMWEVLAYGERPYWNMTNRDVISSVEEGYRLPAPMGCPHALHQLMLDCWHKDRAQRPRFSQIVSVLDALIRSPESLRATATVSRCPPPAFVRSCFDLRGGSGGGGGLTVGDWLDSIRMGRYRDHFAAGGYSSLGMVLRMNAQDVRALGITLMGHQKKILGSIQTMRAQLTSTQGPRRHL
In words: Inhibition of recombinant human GST-tagged cytoplasmic EPHA8 expressed in baculovirus expression system by Z'-LYTE assay.
Conditions: not given
Consider `O=C(NCC(F)(F)F)c1cc(-c2cnn3cc(-c4ccc(OCCN5CCCCC5)cc4)cnc23)cs1`, for which the IC50 amounted to 0.021 µM.

`Cn1cc(-c2cnc3c(-c4csc(C(=O)NCC(F)(F)F)c4)cnn3c2)cn1`: the IC50 is 0.029 µM.

Turning to `Cc1sc(C(=O)N[C@@H]2[C@H](N)CCCC2(F)F)cc1-c1cnn2cc(Cl)cnc12`, the IC50 is 16 µM.

Consider `Cn1cc(-c2cnc3c(-c4csc(C(=O)N[C@@H]5CCCC[C@@H]5N)c4)cnn3c2)cn1` (racemic), for which the half-maximal inhibitory concentration (IC50) stood at 0.0029 µM.

Tested on in a further data set: not listed separately
Nature of the data set: Volume of distribution in Sprague-Dawley rat at 1 mL/kg, iv administered through catheter or 5 mL/kg administered through gastric gavage measured after 24 hrs by LC-MS/MS analysis. Conditions: in vivo. It is filed as ADME, organism-based.
Molecule `O=C(NCC(F)(F)F)c1cc(-c2cnn3cc(-c4ccc(OCCN5CCCCC5)cc4)cnc23)cs1` returned a Vd of 14.2 L/kg.

Molecule `Cn1cc(-c2cnc3c(-c4csc(C(=O)NCC(F)(F)F)c4)cnn3c2)cn1` came in with a Vd of 0.77 L/kg.

Molecule `Cc1sc(C(=O)N[C@@H]2[C@H](N)CCCC2(F)F)cc1-c1cnn2cc(Cl)cnc12` displayed a Vd of 1.3 L/kg.

As for `Cn1cc(-c2cnc3c(-c4csc(C(=O)N[C@@H]5CCCC[C@@H]5N)c4)cnn3c2)cn1` (racemic), the Vd is 29 L/kg.

Another data set deals with Macrophage colony-stimulating factor 1 receptor (Homo sapiens, UniProt P07333). Nature of the data set: Inhibition of recombinant human His-tagged cytoplasmic CSF1R expressed in baculovirus expression system by Z'-LYTE assay.
Chain of Macrophage colony-stimulating factor 1 receptor (P07333 whole entry): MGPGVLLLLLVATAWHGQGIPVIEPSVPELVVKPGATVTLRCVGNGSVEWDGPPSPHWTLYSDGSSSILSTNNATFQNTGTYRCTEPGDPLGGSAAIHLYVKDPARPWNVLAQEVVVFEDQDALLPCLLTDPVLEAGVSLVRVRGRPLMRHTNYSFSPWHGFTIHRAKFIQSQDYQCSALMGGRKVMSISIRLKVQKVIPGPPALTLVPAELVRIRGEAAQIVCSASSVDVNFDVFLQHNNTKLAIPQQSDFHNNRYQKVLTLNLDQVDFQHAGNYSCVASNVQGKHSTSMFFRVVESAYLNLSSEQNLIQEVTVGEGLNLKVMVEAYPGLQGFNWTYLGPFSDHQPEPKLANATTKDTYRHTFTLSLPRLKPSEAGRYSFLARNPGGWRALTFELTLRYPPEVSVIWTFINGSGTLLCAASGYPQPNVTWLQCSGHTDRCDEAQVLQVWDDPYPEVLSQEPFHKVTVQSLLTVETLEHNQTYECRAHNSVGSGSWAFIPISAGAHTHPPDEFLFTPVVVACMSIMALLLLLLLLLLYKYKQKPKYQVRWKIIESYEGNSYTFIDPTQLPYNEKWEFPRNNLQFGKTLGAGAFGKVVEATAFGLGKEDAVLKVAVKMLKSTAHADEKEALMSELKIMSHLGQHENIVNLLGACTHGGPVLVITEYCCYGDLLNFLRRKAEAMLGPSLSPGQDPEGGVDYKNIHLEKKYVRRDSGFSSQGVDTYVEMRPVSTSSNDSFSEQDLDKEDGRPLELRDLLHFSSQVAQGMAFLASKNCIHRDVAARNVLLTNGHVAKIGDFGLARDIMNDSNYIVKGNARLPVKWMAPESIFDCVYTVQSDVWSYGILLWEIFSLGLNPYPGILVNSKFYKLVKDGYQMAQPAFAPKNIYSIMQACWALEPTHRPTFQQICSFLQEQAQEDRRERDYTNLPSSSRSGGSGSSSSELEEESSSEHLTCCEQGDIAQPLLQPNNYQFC
Conditions: not given
On to `O=C(NCC(F)(F)F)c1cc(-c2cnn3cc(-c4ccc(OCCN5CCCCC5)cc4)cnc23)cs1`, for which the IC50 came to 0.041 µM.

As to `Cn1cc(-c2cnc3c(-c4csc(C(=O)NCC(F)(F)F)c4)cnn3c2)cn1`, the 50% inhibitory concentration (IC50) amounted to 0.1 µM.

Consider `Cc1sc(C(=O)N[C@@H]2[C@H](N)CCCC2(F)F)cc1-c1cnn2cc(Cl)cnc12`, for which the IC50 was found to be 22 µM.

As to `Cn1cc(-c2cnc3c(-c4csc(C(=O)N[C@@H]5CCCC[C@@H]5N)c4)cnn3c2)cn1` (racemic), the half-maximal inhibitory concentration (IC50) was determined as 0.0033 µM.
